From PubChem BioAssay AID330 (DTP/NCI, 2004)
Where “and” joins values, the source holds several entries; their conditions need not be identical. Identical values can stand only once. Toxic doses and inconclusive results are not listed. Rule for the calls: active = survival T/C of 150% or more; inactive = T/C below 125% in these data.

System: P388 leukemia ip, CD2F1 mice, survival T/C
Assay: NCI In Vivo Anticancer Drug Screen. Data for tumor model P388 Leukemia (intraperitoneal) in CD2F1 (CDF1) mice
Conditions: endpoint: median survival time, higher = longer survival
Procedure, shortened: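 Mice carrying the transplanted tumor received test compound or vehicle. Survival was recorded in each group, and the value is the treated-group measurement divided by that of the vehicle-treated control group.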

[1] = dose: 50.0 mg/kg/injection, schedule: Q01DX005 (ip), vehicle: saline with Tween-80
[2] = dose: 100.0 mg/kg/injection, schedule: Q01DX005 (ip), vehicle: saline with Tween-80
[3] = dose: 60.0 mg/kg/injection, schedule: Q01DX005 (ip), vehicle: saline with Tween-80
[4] = dose: 120.0 mg/kg/injection, schedule: Q01DX005 (ip), vehicle: saline with Tween-80
[5] = dose: 240.0 mg/kg/injection, schedule: Q01DX005 (ip), vehicle: saline with Tween-80
[6] = dose: 25.0 mg/kg/injection, schedule: Q04DX002 (ip), vehicle: saline with Tween-80
[7] = dose: 50.0 mg/kg/injection, schedule: Q04DX002 (ip), vehicle: saline with Tween-80
[8] = dose: 50.0 mg/kg/injection, schedule: Q01DX005 (ip), vehicle: Klucel (hydroxypropylcellulose) (HPC)
[9] = dose: 100.0 mg/kg/injection, schedule: Q01DX005 (ip), vehicle: Klucel (hydroxypropylcellulose) (HPC)
[10] = dose: 200.0 mg/kg/injection, schedule: Q01DX005 (ip), vehicle: Klucel (hydroxypropylcellulose) (HPC)

Measured: T/C

CC(C)C1OCC(CCl)O1 (centres undefined)
inactive: [1] 104 % of control | [2] 100 % of control | dose: 200.0 mg/kg/injection, schedule: Q01DX005 (ip), vehicle: saline with Tween-80 104 % of control

COc1cc(N2C(=O)C(=O)C(C(C)=O)C2=O)c(OC)cc1Cl (centres undefined)
inactive: dose: 50.0 mg/kg/injection, schedule: Q01DX009 (ip), vehicle: Klucel (hydroxypropylcellulose) (HPC) 100 % of control | dose: 100.0 mg/kg/injection, schedule: Q01DX009 (ip), vehicle: Klucel (hydroxypropylcellulose) (HPC) 99 % of control | dose: 200.0 mg/kg/injection, schedule: Q01DX009 (ip), vehicle: Klucel (hydroxypropylcellulose) (HPC) 100 % of control

CCc1ccc(NS(=O)(=O)c2ccc(F)cc2)cc1
inactive: [3] 104 % of control | [4] 104 % of control | [5] 96 % of control

COc1cc([C@@H]2OC[C@@H]3C(c4cc(OC)c5c(c4)OCO5)OC[C@@H]32)cc(OC)c1OC (some centres undefined)
inactive: dose: 5.0 mg/kg/injection, schedule: Q01DX009 (ip), vehicle: saline + Tween-80 + alcohol 102 % of control | dose: 10.0 mg/kg/injection, schedule: Q01DX009 (ip), vehicle: saline + Tween-80 + alcohol 101 % of control | dose: 20.0 mg/kg/injection, schedule: Q01DX009 (ip), vehicle: saline + Tween-80 + alcohol 105 % of control | dose: 40.0 mg/kg/injection, schedule: Q01DX009 (ip), vehicle: saline + Tween-80 + alcohol 105 % of control

CC[C@@H]1C[C@@H]2CN3CCc4c([nH]c5ccc(OC)c(Cc6ccc(OC)c(OC)c6)c45)C(C(=O)OC)(C2)C13
inactive: dose: 2.5 mg/kg/injection, schedule: Q01DX009 (ip), vehicle: Klucel (hydroxypropylcellulose) (HPC) 88 % of control | dose: 5.0 mg/kg/injection, schedule: Q01DX009 (ip), vehicle: Klucel (hydroxypropylcellulose) (HPC) 103 % of control | dose: 10.0 mg/kg/injection, schedule: Q01DX009 (ip), vehicle: Klucel (hydroxypropylcellulose) (HPC) 92 % of control | dose: 20.0 mg/kg/injection, schedule: Q01DX009 (ip), vehicle: Klucel (hydroxypropylcellulose) (HPC) 95 % of control

N#CC1=CN=C2C=CC=C3N=C(C(Cl)(Cl)Cl)N=C1N32
inactive: dose: 15.0 mg/kg/injection, schedule: Q01DX005 (ip), vehicle: Klucel + Tween-80 92 % of control | dose: 30.0 mg/kg/injection, schedule: Q01DX005 (ip), vehicle: Klucel + Tween-80 87 % of control | dose: 60.0 mg/kg/injection, schedule: Q01DX005 (ip), vehicle: Klucel + Tween-80 93 % of control

Cc1nc2c(N)n[nH]c(=O)n2n1
inactive: [3] 103 % of control | [4] 100 % of control | [5] 99 % of control

CC(C)S(=O)c1ccccc1 (centres undefined)
inactive: dose: 50.0 mg/kg/injection, schedule: Q01DX001 (ip), vehicle: saline with Tween-80 103 % of control | dose: 100.0 mg/kg/injection, schedule: Q01DX001 (ip), vehicle: saline with Tween-80 95 % of control | dose: 200.0 mg/kg/injection, schedule: Q01DX001 (ip), vehicle: saline with Tween-80 95 % of control

CCOC(=O)C1CC(=O)SC1=O (centres undefined)
inactive: [6] 101 % of control | [7] 100 % of control | dose: 100.0 mg/kg/injection, schedule: Q04DX002 (ip), vehicle: saline with Tween-80 99 % of control

Nc1nc2cc([N+](=O)[O-])cnc2s1
inactive: dose: 100.0 mg/kg/injection, schedule: Q04DX003 (ip), vehicle: Klucel (hydroxypropylcellulose) (HPC) 103 % of control | dose: 200.0 mg/kg/injection, schedule: Q04DX003 (ip), vehicle: Klucel (hydroxypropylcellulose) (HPC) 101 % of control | dose: 400.0 mg/kg/injection, schedule: Q04DX003 (ip), vehicle: Klucel (hydroxypropylcellulose) (HPC) 100 % of control

CCOC(=O)c1ccc(NC(=O)Nc2nc3cc(C)c(C)cc3s2)cc1
inactive: dose: 50.0 mg/kg/injection, schedule: Q01DX009 (ip), vehicle: saline with Tween-80 99 % of control | dose: 100.0 mg/kg/injection, schedule: Q01DX009 (ip), vehicle: saline with Tween-80 95 % of control | dose: 200.0 mg/kg/injection, schedule: Q01DX009 (ip), vehicle: saline with Tween-80 93 % of control

CC(=O)N1NC(=O)c2c(c3cc(OCc4ccccc4)ccc3n2C)C1C(C)C (centres undefined)
inactive: dose: 30.0 mg/kg/injection, schedule: Q04DX002 (ip), vehicle: Klucel (hydroxypropylcellulose) (HPC) 98 % of control | dose: 60.0 mg/kg/injection, schedule: Q04DX002 (ip), vehicle: Klucel (hydroxypropylcellulose) (HPC) 96 % of control | dose: 120.0 mg/kg/injection, schedule: Q04DX002 (ip), vehicle: Klucel (hydroxypropylcellulose) (HPC) 96 % of control

CC(/C=N\Nc1ccc(Cl)cc1)=N/NC(N)=S
inactive: dose: 100.0 mg/kg/injection, schedule: Q04DX002 (ip), vehicle: saline 99 % of control | dose: 200.0 mg/kg/injection, schedule: Q04DX002 (ip), vehicle: saline 98 % of control

COc1cccc2c1C(=O)c1c(O)c3c(c(O)c1C2=O)C[C@@](O)(C(O)CO)C[C@@H]3OC1CC(NCc2ccccc2)C(O)C(C)O1 (some centres undefined)
inactive: dose: 1.18 mg/kg/injection, schedule: Q04DX003 (ip), vehicle: water 106 % of control | dose: 2.35 mg/kg/injection, schedule: Q04DX003 (ip), vehicle: water 106 % of control | dose: 9.4 mg/kg/injection, schedule: Q04DX003 (ip), vehicle: water 116 % of control
active: dose: 0.39 mg/kg/injection, schedule: Q01DX009 (ip), vehicle: water 158 % of control and 167 % of control | dose: 0.78 mg/kg/injection, schedule: Q01DX009 (ip), vehicle: water 157 % of control and 162 % of control and 169 % of control | dose: 1.56 mg/kg/injection, schedule: Q01DX009 (ip), vehicle: water 157 % of control and 190 % of control and 196 % of control | dose: 3.13 mg/kg/injection, schedule: Q01DX009 (ip), vehicle: water 163 % of control and 176 % of control and 192 % of control

Cc1ccc(NC(=S)SCc2ccc(Cl)c(Cl)c2)cc1Cl
inactive: dose: 50.0 mg/kg/injection, schedule: Q01DX009 (ip), vehicle: suspension in saline 112 % of control | dose: 100.0 mg/kg/injection, schedule: Q01DX009 (ip), vehicle: suspension in saline 115 % of control | dose: 200.0 mg/kg/injection, schedule: Q01DX009 (ip), vehicle: suspension in saline 116 % of control

COC1(OC)C(C#N)=C(c2ccccc2)C1(OC)OC
inactive: dose: 60.0 mg/kg/injection, schedule: Q01DX005 (ip), vehicle: Klucel (hydroxypropylcellulose) (HPC) 115 % of control | dose: 120.0 mg/kg/injection, schedule: Q01DX005 (ip), vehicle: Klucel (hydroxypropylcellulose) (HPC) 102 % of control | dose: 240.0 mg/kg/injection, schedule: Q01DX005 (ip), vehicle: Klucel (hydroxypropylcellulose) (HPC) 101 % of control

CC(=O)Nc1c(Br)cc(Br)c2c1C(=O)c1ccccc1-2
inactive: [8] 91 % of control | [9] 91 % of control | [10] 97 % of control

CC(C)CC(NC(=O)C(CS)NC(=O)CN1C(=O)CCC1=O)C(N)=O (centres undefined)
inactive: [8] 105 % of control | [9] 100 % of control | [10] 101 % of control

[Co+2].[O-]c1cc2ccccc2cc1/C=N/c1ccccn1.[O-]c1cc2ccccc2cc1/C=N/c1ccccn1.[OH3+].[OH3+]
inactive: dose: 12.5 mg/kg/injection, schedule: Q04DX002 (ip), vehicle: saline with Tween-80 93 % of control | [6] 91 % of control | [7] 88 % of control

C=C1C(O)C2(O)OCC34C(CC5C(C)=CC(=O)C(O)C5(C)C23)OC(=O)C(OC(=O)C/C=C/CCCCCCCC)C14 (centres undefined)
active: dose: 2.0 mg/kg/injection, schedule: Q01DX005 (ip), vehicle: saline + alcohol 151 % of control | dose: 4.0 mg/kg/injection, schedule: Q01DX005 (ip), vehicle: saline + alcohol 151 % of control and 156 % of control | dose: 8.0 mg/kg/injection, schedule: Q01DX005 (ip), vehicle: saline + alcohol 198 % of control | dose: 16.0 mg/kg/injection, schedule: Q01DX005 (ip), vehicle: saline + alcohol 205 % of control

CCN(CC)CCOC(=O)c1ccc(NC(=S)Nc2ccccc2)cc1
inactive: [1] 98 % of control | [2] 90 % of control

O=C(O)C1OC1C(=O)O (centres undefined)
inactive: dose: 75.0 mg/kg/injection, schedule: Q04DX003 (ip), vehicle: saline 100 % of control | dose: 150.0 mg/kg/injection, schedule: Q04DX003 (ip), vehicle: saline 100 % of control | dose: 300.0 mg/kg/injection, schedule: Q04DX003 (ip), vehicle: saline 100 % of control

CCOc1cc(C)c(C(CC(=O)O)CC(=O)N(CCCl)CCCl)cc1C(C)C (centres undefined)
inactive: dose: 100.0 mg/kg/injection, schedule: Q04DX003 (ip), vehicle: saline 107 % of control | dose: 200.0 mg/kg/injection, schedule: Q04DX003 (ip), vehicle: saline 100 % of control | dose: 400.0 mg/kg/injection, schedule: Q04DX003 (ip), vehicle: saline 108 % of control
